# Results published in the SangsterLogP compilation.
row,SMILES,logP
1,O=C(NC1CCCC1(F)F)c1ccccc1 (stereo not drawn),1.87
2,O=C(c1ccccc1)N1CC2CCC1C2 (stereo not drawn),1.65
3,O=C(NCCCCF)c1ccccc1,1.56
4,O=C(Nc1ccccc1)[C@H]1C[C@H](F)C1,2
5,O=C(NCCCF)c1ccccc1,1.28
6,O=C(Nc1ccccc1)C1CCC(F)(F)C1 (stereo not drawn),2.5
7,O=C(Nc1ccccc1)C1CC1(F)F (stereo not drawn),2.07
8,O=C(c1ccccc1)N1CCC1CF (stereo not drawn),1.4
9,O=C(NCC(F)F)c1ccccc1,1.37
10,C[C@@H]1C[C@@H]1NC(=O)c1ccccc1,1.64
11,O=C(NCC(F)(F)F)c1ccccc1,1.76
12,O=C(NC1CCCCCC1)c1ccccc1,3.03
13,O=C(N[C@@H]1C[C@@H]1CF)c1ccccc1,1.12
14,O=C(Nc1ccccc1)[C@@H]1CC[C@H]1C(F)F,2.22
15,CC12CC(CN1C(=O)c1ccccc1)C2,1.75
16,O=C(Nc1ccccc1)[C@@H]1C[C@H]1C(F)F,2.28
17,O=C(N[C@@H]1CC[C@H]1CF)c1ccccc1,1.85
18,O=C(NC1CCCCCC1(F)F)c1ccccc1 (stereo not drawn),2.56
19,O=C(N[C@H]1C[C@@H](F)C1)c1ccccc1,1.67
20,O=C(Nc1ccccc1)C12CC(C(F)(F)F)(CO1)C2,2.05
21,O=C(c1ccccc1)N1CC(F)C1,0.94
22,O=C(N[C@H]1C[C@@H](C(F)(F)F)C1)c1ccccc1,2.62
23,CCCCC(=O)Nc1ccccc1,2.29

row,SMILES,logP
1,O=C(Nc1ccccc1)C12CC(C(F)F)(CO1)C2,1.93
2,O=C(c1ccccc1)N1CC(CF)C1,0.93
3,O=C(c1ccccc1)N1CCC(F)(F)C1,1.35
4,O=C(Nc1ccccc1)C12CC(CO1)C2,1.54
5,O=C(NCCF)c1ccccc1,1.07
6,O=C(NC1CC1(F)F)c1ccccc1 (stereo not drawn),1.51
7,O=C(Nc1ccccc1)C1(CF)CCC1,1.88
8,O=C(N[C@@H]1C[C@H]1CF)c1ccccc1,1.41
9,O=C(NCCC(F)(F)F)c1ccccc1,1.93
10,O=C(Nc1ccccc1)C1CC12CC2 (stereo not drawn),2.35
11,O=C(c1ccccc1)N1CC2CCC(C2)C1,2.31
12,O=C(c1ccccc1)N1CC2CCC1CC2,2.01
13,O=C(c1ccccc1)N1CCCCC1,1.39
14,O=C(c1ccccc1)N1CC[C@@H](F)[C@H](F)C1,1.26
15,O=C(Nc1ccccc1)[C@H]1C[C@H]1C(F)(F)F,2.12
16,O=C(c1ccccc1)N1CC2CCCC(C1)C2(F)F,2.18
17,O=C(Nc1ccccc1)[C@H]1C[C@@H](C(F)F)C1,2.23
18,O=C(c1ccccc1)N1C[C@@H](F)C[C@H](F)C1,1.35
19,C[C@@H]1C[C@H]1NC(=O)c1ccccc1,1.83
20,O=C(Nc1ccccc1)[C@H]1C[C@H](CF)C1,2.14
21,O=C(c1ccccc1)N1CCC(C(F)F)CC1,1.67
22,O=C(c1ccccc1)N1CC2CCCC(C2)C1,2.36
23,O=C(c1ccccc1)N1CCC1C(F)F (stereo not drawn),1.51

row,SMILES,logP
1,O=C(c1ccccc1)N1C[C@H](F)C[C@H](F)C1,0.58
2,O=C(Nc1ccccc1)[C@@H]1C[C@@H]1CF,1.88
3,O=C(c1ccccc1)N1CCCC(C(F)(F)F)C1 (stereo not drawn),2.21
4,O=C(c1ccccc1)N1CC2CCC1(C(F)(F)F)CC2,2.51
5,O=C(N[C@H]1C[C@H](F)C1)c1ccccc1,1.71
6,CC12CCC(CC1)CN2C(=O)c1ccccc1,2.66
7,CCNC(=O)c1ccccc1,1.31
8,O=C(Nc1ccccc1)C1CCCC(F)(F)C1 (stereo not drawn),2.72
9,O=C(c1ccccc1)N1CC2COCC(C2)C1,0.84
10,O=C(Nc1ccccc1)[C@@H]1C[C@H]1CF,1.12
11,O=C(NC1CCCCC1(F)F)c1ccccc1 (stereo not drawn),2.16
12,O=C(Nc1ccccc1)C1CC2(CCC2)C1,3.27
13,CCC(F)(F)CNC(=O)c1ccccc1,2.04
14,O=C(N[C@H]1C[C@H](C(F)(F)F)C1)c1ccccc1,2.82
15,O=C(c1ccccc1)N1C[C@@H](F)[C@@H](F)C1,1.01
16,CC(F)(F)CCC(=O)Nc1ccccc1,2.12
17,O=C(NC1CC2(CCC2)C1)c1ccccc1,3.26
18,O=C(Nc1ccccc1)[C@H]1C[C@@H]2[C@H](C1)C2(F)F,2.37
19,O=C(NCCCC(F)(F)F)c1ccccc1,2.28
20,O=C(c1ccccc1)N1CC2CS(=O)(=O)CC(C1)C2(F)F,0.2
21,O=C(N[C@@H]1CC[C@H]1F)c1ccccc1,1.64
22,O=C(Nc1ccccc1)[C@H]1C[C@@H](F)C1,1.86

# Other lines, results leading:
row,logP,SMILES
1,2.14,O=C(NC1C(F)(F)C12CC2)c1ccccc1 (stereo not drawn)
2,2.11,O=C(Nc1ccccc1)[C@@H]1CC[C@H]1CF
3,2.03,O=C(NC1(CF)CCC1)c1ccccc1
4,1.97,O=C(N[C@H]1C[C@H](C(F)F)C1)c1ccccc1
5,2.09,O=C(c1ccccc1)N1CC2CCC(C1)C2(F)F
6,1.78,O=C(N[C@H]1C[C@H](CF)C1)c1ccccc1
7,1.75,O=C(c1ccccc1)N1CCCC1CF (stereo not drawn)
8,2.98,O=C(Nc1ccccc1)[C@@H]1C[C@H]1C(F)(F)F
9,1.45,O=C(c1ccccc1)N1CCC(CF)CC1
10,2.57,O=C(NC1CCCCC(F)(F)C1)c1ccccc1 (stereo not drawn)
11,0.91,O=C(c1ccccc1)N1CCC(F)C1 (stereo not drawn)
12,2,O=C(c1ccccc1)N1CCCCC1CF (stereo not drawn)
13,2.25,O=C(Nc1ccccc1)C1CCCC1(F)F (stereo not drawn)
14,2.5,O=C(NC1CCCC(F)(F)CC1)c1ccccc1 (stereo not drawn)
15,2.51,O=C(NC1(C(F)(F)F)CCC1)c1ccccc1
16,2.66,O=C(Nc1ccccc1)C1CC12CC2(F)F (stereo not drawn)
17,2.26,O=C(Nc1ccccc1)C1CCC1
18,2.12,O=C(c1ccccc1)N1CCCC1C(F)(F)F (stereo not drawn)
19,1.08,O=C(c1ccccc1)N1C[C@@H](F)[C@H](F)C1
20,2.69,O=C(Nc1ccccc1)C1CC2(CC(F)C2)C1 (stereo not drawn)
21,2.72,O=C(Nc1ccccc1)[C@H]1C[C@@H](C(F)(F)F)C1
22,1.4,O=C(c1ccccc1)N1CC(C(F)F)C1

row,logP,SMILES
1,1.66,O=C(c1ccccc1)N1CC(C(F)(F)F)C1
2,2.08,O=C(NC1CC12CC2)c1ccccc1 (stereo not drawn)
3,2.2,O=C(c1ccccc1)N1CCC(C(F)(F)F)CC1
4,2.31,O=C(NC1CCCC(F)(F)C1)c1ccccc1 (stereo not drawn)
5,1.47,O=C(c1ccccc1)N1CC2CC1C2
6,1.88,O=C(c1ccccc1)N1CCCC1C(F)F (stereo not drawn)
7,2.39,O=C(Nc1ccccc1)[C@H]1C[C@H](C(F)F)C1
8,1.94,O=C(N[C@@H]1CC[C@H]1C(F)F)c1ccccc1
9,1.19,O=C(c1ccccc1)N1CCCC1
10,2.42,C[C@@H]1C[C@H]1C(=O)Nc1ccccc1
11,2.87,O=C(Nc1ccccc1)[C@H]1C[C@@H]2C[C@@H]2C1
12,1.95,O=C(NC1CCC1)c1ccccc1
13,1.81,CC(F)(F)CCNC(=O)c1ccccc1
14,1.65,O=C(c1ccccc1)N1CCCC(F)(F)C1
15,1.88,O=C(c1ccccc1)N1CC2CCCC1C2 (stereo not drawn)
16,1.52,O=C(c1ccccc1)N1CCCC(CF)C1 (stereo not drawn)
17,3.24,O=C(Nc1ccccc1)C1CCCCCC1
18,1.79,O=C(N[C@@H]1C[C@H]1C(F)(F)F)c1ccccc1
19,2.68,O=C(Nc1ccccc1)C1CCCC1
20,2.16,O=C(N[C@H]1C[C@H]1C(F)(F)F)c1ccccc1
21,2.23,O=C(NC1CCCC1)c1ccccc1
22,2.03,O=C(Nc1ccccc1)C1CCC1(F)F (stereo not drawn)

row,logP,SMILES
1,1.49,O=C(NCCC(F)F)c1ccccc1
2,2.06,O=C(CCCC(F)F)Nc1ccccc1
3,2.63,O=C(Nc1ccccc1)C1CCC(F)(F)CC1
4,2.54,O=C(N[C@@H]1CC[C@H]1C(F)(F)F)c1ccccc1
5,2.04,O=C(c1ccccc1)N1CCCCC1C(F)F (stereo not drawn)
6,1.7,O=C(c1ccccc1)N1CCC(C(F)(F)F)C1 (stereo not drawn)
7,2.04,O=C(NC1CC12CC2(F)F)c1ccccc1 (stereo not drawn)
8,2.3,O=C(N[C@@H]1C[C@@H]2C[C@@H]2C1)c1ccccc1
9,2.5,O=C(Nc1ccccc1)C1CCCCC1(F)F (stereo not drawn)
10,2.9,O=C(Nc1ccccc1)C1CCCCCC1(F)F (stereo not drawn)
11,1.26,O=C(c1ccccc1)N1CCCC(F)C1 (stereo not drawn)
12,2.88,O=C(Nc1ccccc1)[C@@H]1CC[C@H]1C(F)(F)F
13,2.41,CC12CCCC(CN1C(=O)c1ccccc1)C2 (stereo not drawn)
14,1.36,O=C(N[C@H]1C[C@H]1C(F)F)c1ccccc1
15,1.77,O=C(N[C@H]1C[C@@H](CF)C1)c1ccccc1
16,2.02,O=C(NC1CCC(F)(F)C1)c1ccccc1 (stereo not drawn)
17,2.48,O=C(NC1(C(F)F)CCC1)c1ccccc1
18,1.96,O=C(Nc1ccccc1)[C@H]1C[C@@H](CF)C1
19,2.04,O=C(Nc1ccccc1)[C@@H]1CC[C@H]1F
20,2.54,O=C(c1ccccc1)N1CCCCC1C(F)(F)F (stereo not drawn)
21,1.4,O=C(c1ccccc1)N1CCC(C(F)F)C1 (stereo not drawn)
22,2.31,C[C@@H]1C[C@@H]1C(=O)Nc1ccccc1

row,logP,SMILES
1,2.93,O=C(Nc1ccccc1)C1CC2(C1)CC(F)(F)C2
2,1.84,O=C(c1ccccc1)N1CC2CC(F)(F)CC(C1)C2(F)F
3,1.59,O=C(c1ccccc1)N1CC2CC(C1)CC(F)(F)C2
4,1.75,O=C(c1ccccc1)N1CCC1C(F)(F)F (stereo not drawn)
5,2.23,CCCCNC(=O)c1ccccc1
6,1.7,O=C(NC1CCC1(F)F)c1ccccc1 (stereo not drawn)
7,1.03,CNC(=O)c1ccccc1
8,1.92,O=C(Nc1ccccc1)C1CC1
9,1.94,O=C(NC1CC(F)(F)C1)c1ccccc1
10,1.73,O=C(c1ccccc1)N1CCCC(C(F)F)C1 (stereo not drawn)
11,2.95,O=C(Nc1ccccc1)C1CCCC(F)(F)CC1 (stereo not drawn)
12,2.26,O=C(Nc1ccccc1)C1CC(F)(F)C1
13,1.34,O=C(c1ccccc1)N1CC(F)(F)C1
14,1.29,O=C(NC1CC1)c1ccccc1
15,2.92,O=C(Nc1ccccc1)[C@@H]1C[C@@H]2C[C@@H]2C1
16,1.57,O=C(N[C@@H]1CC[C@@H]1F)c1ccccc1
17,2.35,O=C(Nc1ccccc1)[C@H]1C[C@H]1C(F)F
18,1.98,O=C(N[C@H]1C[C@@H](C(F)F)C1)c1ccccc1
19,2.2,O=C(c1ccccc1)N1CC2CCC1(C(F)(F)F)C2 (stereo not drawn)
